Test results as given in patent publication US20250353842A1, “BICYCLIC AMINE CDK12 INHIBITORS” (Incyte Corporation, priority 2022, published 2025).

Target: CDK12 complexed with Cyclin K (Homo sapiens (Human), UniProt Q9NYV4)
Test: CDK enzymatic assay (HTRF, LANCE Ultra kinase assay)
Assay type: biochemical
Details: 60 minutes pre-incubation, 1 mM ATP
Method: The following activity of the CDK enzymes in complex with their respective cyclins we assayed: CDK1 complexed with Cyclin B1; CDK2 complexed with Cyclin E1; CDK4 complexed with Cyclin D1; CDK6 complexed with Cyclin D1; CDK6 complexed with Cyclin D3; CDK9 complexed with Cyclin T1; CDK7 complexed with Cyclin H/MAT1; CDK2 complexed with Cyclin A2; CDK5 complexed with p35; CDK12 complexed with Cyclin K; CDK13 complexed with Cyclin K. These in vitro enzyme activity are assayed using homogeneous time-resolved energy transfer (HTRF), which measures phosphorylation of a peptide substrate. The LANCE® Ultra kinase assay (PerkinElmer) uses a ULight™-labeled EIF4E-binding protein 1 (THR37/46) peptide (DYSTTPGGTLFSTTPGTRI) (SEQ ID NO: 1) substrate and a Europium-labeled anti-phospho-4E-BP1 antibody (CDK2, CDK1, CDK4, CDK6, CDK9, CDK12, CDK13) or ULight™-labeled Myelin Basic Protein peptide (VTPRTPPP) (SEQ ID NO: 2) substrate and a Europium-labeled anti-phospho-MBP antibody (CDK7). Each CDK enzyme activity assays utilized human CDK co-expressed as N-terminal GST-tagged protein with its full length cyclin partner using a baculovirus expression system.
Enzyme was pre-incubated with compounds for 30 minutes (CDK1,2,4,6,9) or 60 minutes (CDK7, CDK12, CDK13) prior to addition of ATP and Ulight-peptide (1 mM and 50 nM final, respectively), in assay buffer containing 50 mM HEPES pH 7.5, 1 mM EGTA, 10 mM MgCl2, 2 mM DTT, 0.05 mg/mL BSA, and 0.01% Tween 20.
The reaction was then incubated for 60-90 minutes at room temperature. The reactions were stopped by the addition of EDTA and Europium labeled antibody, for a final concentration of 15 mM and 1.0-1.5 nM, respectively. HTRF signals were read after 15-120 minutes. A ratio of fluorescence transferred to the labeled substrate (665 nm) relative to fluorescence of the Europium donor (620 nm) represents the extent of phosphorylation. Ratios for treated wells were normalized to DMSO only (100% activity) and no enzyme (0% activity) controls. Normalized data was analyzed using a three or four parameter dose response curve to determine IC50 for each compound and are shown in Table A. Control reference inhibitors were included on each plate.

Sequence of CDK12 complexed with Cyclin K (Q9NYV4 whole entry): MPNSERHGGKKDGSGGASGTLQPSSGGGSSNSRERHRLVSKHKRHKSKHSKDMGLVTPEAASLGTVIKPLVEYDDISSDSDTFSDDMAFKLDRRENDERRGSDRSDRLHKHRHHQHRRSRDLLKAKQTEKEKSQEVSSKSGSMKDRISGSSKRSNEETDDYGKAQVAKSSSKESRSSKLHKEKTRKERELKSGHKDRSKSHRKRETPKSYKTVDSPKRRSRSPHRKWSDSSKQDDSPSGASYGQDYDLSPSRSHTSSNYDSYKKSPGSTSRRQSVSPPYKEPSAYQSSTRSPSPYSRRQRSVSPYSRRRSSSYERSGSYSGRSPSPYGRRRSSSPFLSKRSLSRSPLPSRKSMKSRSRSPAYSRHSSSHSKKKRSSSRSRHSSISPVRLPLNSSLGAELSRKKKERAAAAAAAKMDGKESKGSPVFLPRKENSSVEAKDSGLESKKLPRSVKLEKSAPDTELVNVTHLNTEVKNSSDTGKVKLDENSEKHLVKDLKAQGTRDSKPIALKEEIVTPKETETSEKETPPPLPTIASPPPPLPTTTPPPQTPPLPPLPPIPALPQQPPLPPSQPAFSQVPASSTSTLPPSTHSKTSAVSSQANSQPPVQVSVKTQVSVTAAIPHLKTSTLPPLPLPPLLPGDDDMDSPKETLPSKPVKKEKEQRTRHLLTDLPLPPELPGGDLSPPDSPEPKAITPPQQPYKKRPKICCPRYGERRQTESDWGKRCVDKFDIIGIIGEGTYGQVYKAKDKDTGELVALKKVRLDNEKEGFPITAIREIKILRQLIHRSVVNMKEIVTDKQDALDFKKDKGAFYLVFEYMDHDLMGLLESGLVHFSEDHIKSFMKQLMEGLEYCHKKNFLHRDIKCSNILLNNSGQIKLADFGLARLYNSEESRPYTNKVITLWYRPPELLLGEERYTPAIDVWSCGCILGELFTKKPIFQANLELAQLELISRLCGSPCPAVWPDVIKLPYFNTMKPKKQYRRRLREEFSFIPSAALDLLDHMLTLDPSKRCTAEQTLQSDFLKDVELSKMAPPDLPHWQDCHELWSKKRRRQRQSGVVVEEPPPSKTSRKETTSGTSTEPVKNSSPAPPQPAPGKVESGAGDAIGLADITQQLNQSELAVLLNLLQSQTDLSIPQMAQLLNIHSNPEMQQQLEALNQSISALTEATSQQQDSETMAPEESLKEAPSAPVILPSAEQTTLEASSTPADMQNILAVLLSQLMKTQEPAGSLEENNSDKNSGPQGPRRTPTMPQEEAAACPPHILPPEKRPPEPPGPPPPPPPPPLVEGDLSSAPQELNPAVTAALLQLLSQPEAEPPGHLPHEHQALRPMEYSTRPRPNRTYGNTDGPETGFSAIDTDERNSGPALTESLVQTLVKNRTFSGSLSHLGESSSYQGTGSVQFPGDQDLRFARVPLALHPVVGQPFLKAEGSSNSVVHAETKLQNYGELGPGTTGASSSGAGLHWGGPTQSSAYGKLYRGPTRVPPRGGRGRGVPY
Sequence of CDK12 complexed with Cyclin K (O75909 whole entry partner): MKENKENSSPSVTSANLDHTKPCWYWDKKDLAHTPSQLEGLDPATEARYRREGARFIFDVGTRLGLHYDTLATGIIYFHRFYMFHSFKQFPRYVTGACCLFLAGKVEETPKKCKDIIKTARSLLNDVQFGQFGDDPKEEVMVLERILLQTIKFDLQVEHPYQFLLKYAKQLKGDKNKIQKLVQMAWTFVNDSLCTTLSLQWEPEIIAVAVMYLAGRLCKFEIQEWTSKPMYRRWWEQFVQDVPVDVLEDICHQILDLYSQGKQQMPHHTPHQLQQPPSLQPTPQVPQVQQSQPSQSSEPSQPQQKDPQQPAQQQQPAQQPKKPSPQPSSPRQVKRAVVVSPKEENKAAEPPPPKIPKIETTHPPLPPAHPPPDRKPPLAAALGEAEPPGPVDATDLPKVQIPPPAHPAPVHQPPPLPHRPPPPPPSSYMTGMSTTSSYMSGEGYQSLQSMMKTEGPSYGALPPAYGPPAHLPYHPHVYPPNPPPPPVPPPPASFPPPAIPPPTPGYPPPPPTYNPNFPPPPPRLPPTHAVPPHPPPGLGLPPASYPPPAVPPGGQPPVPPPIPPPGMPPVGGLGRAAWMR

Structure (SMILES)	IC50 [nM]
N#Cc1cnc2c(c1)ncn2[C@H]1CCC[C@@H](Nc2ncc(C#N)c(-c3cnn(CC(F)F)c3)n2)C1 [9/9A, 3-((1S,3R)-3-((5-Cyano-4-(1-(2,2-difluoroethyl)-1H-pyrazol-4-yl)pyrimidin-2-yl)amino)cyclohexyl)-3H-imidazo[4,5-b]pyridine-6-carbonitrile]	< 50
N#Cc1cnc(N[C@@H]2CCC[C@H](n3cnc4cccc(C#N)c43)C2)nc1-c1cnn(CC(F)F)c1 [13/13A, 1-((1S,3R)-3-((5-Cyano-4-(1-(2,2-difluoroethyl)-1H-pyrazol-4-yl)pyrimidin-2-yl)amino)cyclohexyl)-1H-benzo[d]imidazole-7-carbonitrile]	< 50
N#Cc1cnc2c(c1)ncn2[C@H]1CCC[C@@H](Nc2ncc(C(F)(F)F)c(-c3cnn(CC(F)F)c3)n2)C1 [Example 1, 3-((1S,3R)-3-((4-(1-(2,2-Difluoroethyl)-1H-pyrazol-4-yl)-5-(trifluoromethyl)pyrimidin-2-yl)amino)cyclohexyl)-3H-imidazo[4,5-b]pyridine-6-carbonitrile]	< 50
FC(F)Cn1cc(-c2nc(N[C@@H]3CCC[C@H](n4cnc5cnccc54)C3)ncc2C(F)(F)F)cn1 [Example 7, N-((1R,3S)-3-(1H-Imidazo[4,5-c]pyridin-1-yl)cyclohexyl)-4-(1-(2,2-difluoroethyl)-1H-pyrazol-4-yl)-5-(trifluoromethyl)pyrimidin-2-amine]	< 50
Cc1ccnc2c1ncn2[C@H]1CCC[C@@H](Nc2ncc(C#N)c(-c3cnn(CC(F)F)c3)n2)C1 [Example 8, 4-(1-(2,2-Difluoroethyl)-1H-pyrazol-4-yl)-2-(((1R,3S)-3-(7-methyl-3H-imidazo[4,5-b]pyridin-3-yl)cyclohexyl)amino)pyrimidine-5-carbonitrile]	< 50

Now from value to compound:

IC50 [nM]	Structure (SMILES)
< 50	Cc1c(-c2nc(N[C@@H]3CCC[C@H](n4cnc5cc(C#N)cnc54)C3)ncc2C#N)nnn1C [28/28A, 3-((1S,3R)-3-((5-Cyano-4-(1,5-dimethyl-1H-1,2,3-triazol-4-yl)pyrimidin-2-yl)amino)cyclohexyl)-3H-imidazo[4,5-b]pyridine-6-carbonitrile]
> 500	N#Cc1cnc2c(c1)ncn2[C@H]1CC[C@@H](Nc2ncc(C(F)(F)F)c(-c3cnn(CC(F)F)c3)n2)C1 [Example 2, 3-((1S,3R)-3-((4-(1-(2,2-Difluoroethyl)-1H-pyrazol-4-yl)-5-(trifluoromethyl)pyrimidin-2-yl)amino)cyclopentyl)-3H-imidazo[4,5-b]pyridine-6-carbonitrile]
< 50	N#Cc1cnc(N[C@@H]2CCC[C@H](n3cnc4ccccc43)C2)nc1-c1cnn(CC(F)F)c1 [Example 3, 2-(((1R,3S)-3-(1H-Benzo[d]imidazol-1-yl)cyclohexyl)amino)-4-(1-(2,2-difluoroethyl)-1H-pyrazol-4-yl)pyrimidine-5-carbonitrile]
< 50	FC(F)Cn1cc(-c2nc(N[C@@H]3CCC[C@H](n4cnc5cc(C(F)(F)F)cnc54)C3)ncc2C(F)(F)F)cn1 [Example 4, 4-(1-(2,2-Difluoroethyl)-1H-pyrazol-4-yl)-5-(trifluoromethyl)-N-((1R,3S)-3-(6-(trifluoromethyl)-3H-imidazo[4,5-b]pyridin-3-yl)cyclohexyl)pyrimidin-2-amine]
< 50	COC(=O)c1ccc2ncn([C@H]3CCC[C@@H](Nc4ncc(C(F)(F)F)c(-c5cnn(CC(F)F)c5)n4)C3)c2n1 [Example 5, Methyl 3-((1S,3R)-3-((4-(1-(2,2-difluoroethyl)-1H-pyrazol-4-yl)-5-(trifluoromethyl)pyrimidin-2-yl)amino)cyclohexyl)-3H-imidazo[4,5-b]pyridine-5-carboxylate]
< 50	COc1ccc2ncn([C@H]3CCC[C@@H](Nc4ncc(C(F)(F)F)c(-c5cnn(CC(F)F)c5)n4)C3)c2n1 [Example 6, 4-(1-(2,2-Difluoroethyl)-1H-pyrazol-4-yl)-N-((1R,3S)-3-(5-methoxy-3H-imidazo[4,5-b]pyridin-3-yl)cyclohexyl)-5-(trifluoromethyl)pyrimidin-2-amine]
